The values that follow come from patent US12534552B2, “Antibacterial polymer” (LG Chem, Ltd., priority 2020, dated 2026).

Series [1] can be described thus: Comparison of thermal decomposition behavior by TGA of PMMA blends. The class given is physicochemical. The note with it: TGA step 4, 50° C. to 600° C., 10° C./min, nitrogen; 40 parts by weight in 100 parts PMMA. As to the method: Poly(Methyl methacrylate) (TCI Chemical, CAS RN: 9011-14-7) was put into a Mixed Torque Rheometer (HAPRO), and then the temperature was raised to 160° C. and the mixture was mixed for 5 minutes. PIA-2 and icaridin were added in an amount of 40 parts by weight based on 100 parts by weight of poly(methyl methacrylate), respectively, mixed at a temperature of 160° C. for 30 minutes, and then cooled to room temperature to obtain a sample.
In order to confirm the thermal decomposition behavior of the prepared sample, experiments were performed as shown in Table 2 below using TGA (Thermogravimetric Analyzer, TA Instrument, DISCOVERY TGA 550 W/MFC & AUTO).

Another series concerns E. Coli. Briefly: Antibacterial Test 2: bacterial reduction rate, ASTM E 2149 test method. The settings on record: 0.2 g sample, 10 mL PBS with E. Coli, 37° C., colony count; for 1 hour-bacterial reduction rate: 1 hour-contact; for 24 hour-bacterial reduction rate: 24 hour-contact. The class given is cell-based, Escherichia coli. The procedure: Antibacterial tests were performed on the antibacterial polymers prepared in Examples and Comparative Examples. Specifically, based on the ASTM E 2149 antibacterial test method, the bacterial reduction rate (%) was measured by the following method. In addition, the bacterial reduction rates (%) of Icaridin and Menthol acrylate as single molecules was also measured by the same method and shown as Comparative Examples 2 and 3.
The sample (0.2 g) was placed in a 50 mL conical tube, to which 1× PBS (10 mL) inoculated with E. Coli (1.5×10^5 CFU/mL) was added, and cultured for 1 hour and 24 hours in a shaking incubator at 37° C., so as to allow the bacteria and the material to come into sufficient contact with each other. In order to check the colony of E. coli in the cultured sample, the sequentially diluted solution was spread on a TSA Agar plate, and then cultured for 16 hours so as to form colonies in an incubator at 30° C. The degree of bacterial culture was grasped from the number of colonies formed, and the antibacterial performance was compared.
In the above equation, Cs is the number of microorganisms (CFU/ml) in the experimental group, which can be confirmed as the number of colonies formed on the TSA Agar plate, and C0 is the number of microorganisms in the control group, which means the number of E. Coli in PBS to which the sample was not added.

For series [2], the system named is Proteus Mirabilis (ATCC 29906). Briefly: Antibacterial Test 1: bacterial growth inhibition rate by absorbance at 600 nm. The class given is cell-based. The settings on record: 0.1 g sample in 25 ml nutrient broth, 3000 CFU/ml, 37° C., 16 hours. As to the method: Antibacterial tests were performed on the antibacterial polymers prepared in Examples and Comparative Examples. Specifically, in the antibacterial test, the bacterial growth inhibition rate (%) was measured by the following method. In addition, the bacterial growth inhibition rate (%) of Icaridin and Menthol acrylate as single molecules was also measured by the same method and shown as Comparative Examples 2 and 3.
0.1 g of the antibacterial polymer prepared above was added to 25 ml of nutrient broth culture medium inoculated with the test bacterium Proteus Mirabilis (ATCC 29906) at 3000 CFU/ml, and then incubated in a shaking incubator (VS-37SIF, produced by Visiontech) at 37° C. for 16 hours. The absorbance at 600 nm wavelength of the cultured solution was measured using a UV-Vis Spectrophotometer (Optizen POP, produced by K Lab). In addition, in a pure culture medium containing no antibacterial polymer, a solution prepared by culturing Proteus Mirabilis (ATCC 29906) at 37° C. for 16 hours was prepared as a control group, and the absorbance at a 600 nm wavelength was measured by the same manner as above. Using the measurement result, the bacterial growth inhibition rate (%) of Proteus Mirabilis (ATCC 29906) was calculated according to Equation 1 below, and the results are shown in Table 1 below. […]

Structures are written as SMILES.

On to `CCC(C)OC(=O)N1CCCCC1CCO` (stereo not shown) [compound 2, Icaridin], for which, in series [1], the “Thermal decomposition behavior / heat resistance” value is “proceeds decomposition from a lower temperature than that of PIA-2”. Further, in the series with E. Coli, the “1 hour-bacterial reduction rate” value is 3.17% and the “24 hour-bacterial reduction rate” value amounted to 13.89%. In addition, the “Bacterial growth inhibition rate” value in series [2] is 11.24%.
Regarding `C=CC(=O)OC1CC(C)CCC1C(C)C` (stereo not shown) [compound 3, Menthol acrylate], in the series with E. Coli, the “1 hour-bacterial reduction rate” value was found to be 0% and the “24 hour-bacterial reduction rate” value is 0%. For the same compound, the “Bacterial growth inhibition rate” value in series [2] is reported as 0.2%.
